Data from publication PMC6366416, “Synthesis and in vitro anticancer activity of certain novel 1-(2-methyl-6-arylpyridin-3-yl)-3-phenylureas as apoptosis-inducing agents” (Journal of Enzyme Inhibition and Medicinal Chemistry, 2019).

How the values were obtained:
A498 = test: NCI one-dose SRB growth inhibition; format: cell-based; settings: Homo sapiens, Renal Cancer, 48 h, read-out: GI% A498
Procedure: (§1) The antitumor assay was performed according to the protocol of the Drug Evaluation Branch, NCI, Bethesda[24–26]. A 48 h drug exposure protocol was adopted, and sulforhodamine B (SRB) assay[27] was utilized to assess the cell growth and viability, as reported earlier[17]^,[28].
(§2) The structures of all the newly synthesized pyridines 5a–l were submitted to the National Cancer Institute (NCI) Developmental Therapeutic Program (www.dtp.nci.nih.gov). […] Nine different types of cancer were tested in this assay: colon, ovarian, prostate, leukemia, melanoma, CNS, renal, breast and lung cancers. A 48 h drug exposure protocol was adopted, and sulforhodamine B (SRB) assay[27] was utilized to assess the cell growth and viability.

BT-549 = test: NCI one-dose SRB growth inhibition; format: cell-based; settings: Homo sapiens, Breast Cancer, 48 h, read-out: GI% BT-549
Procedure: as §1, §2

COLO 205 = test: NCI one-dose SRB growth inhibition; format: cell-based; settings: Homo sapiens, Colon Cancer, 48 h, read-out: GI% COLO 205
Procedure: as §1, §2

DU-145 = test: NCI one-dose SRB growth inhibition; format: cell-based; settings: Homo sapiens, Prostate, 48 h, read-out: GI% DU-145
Procedure: as §1, §2

HCT-116 = test: NCI one-dose SRB growth inhibition; format: cell-based; settings: Homo sapiens, HCT-116, 48 h, Colon Cancer, read-out: GI% HCT-116
Procedure: as §1, §2

HCT-15 = test: NCI one-dose SRB growth inhibition; format: cell-based; settings: Homo sapiens, HCT-15, 48 h, Colon Cancer, read-out: GI% HCT-15
Procedure: as §1, §2

HL-60(TB) = test: NCI one-dose SRB growth inhibition; format: cell-based; settings: Homo sapiens, Leukemia, 48 h, read-out: GI% HL-60(TB)
Procedure: as §1, §2

IGROV1 = test: NCI one-dose SRB growth inhibition; format: cell-based; settings: Homo sapiens, IGROV-1, Ovarian Cancer, 48 h, read-out: GI% IGROV1
Procedure: as §1, §2

KM12 = test: NCI one-dose SRB growth inhibition; format: cell-based; settings: Homo sapiens, Colon Cancer, 48 h, read-out: GI% KM12
Procedure: as §1, §2

LOX IMVI = test: NCI one-dose SRB growth inhibition; format: cell-based; settings: Homo sapiens, Melanoma, 48 h, read-out: GI% LOX IMVI
Procedure: as §1, §2

MCF7 = test: NCI one-dose SRB growth inhibition; format: cell-based; settings: Homo sapiens, Breast Cancer, 48 h, read-out: GI% MCF7
Procedure: as §1, §2

MDA-MB-231 = test: NCI one-dose SRB growth inhibition; format: cell-based; settings: Homo sapiens, Breast Cancer, 48 h, read-out: GI% MDA-MB-231
Procedure: as §1, §2

MDA-MB-435 = test: NCI one-dose SRB growth inhibition; format: cell-based; settings: Homo sapiens, Melanoma, 48 h, read-out: GI% MDA-MB-435
Procedure: as §1, §2

MOLT-4 = test: NCI one-dose SRB growth inhibition; format: cell-based; settings: Homo sapiens, Leukemia, 48 h, read-out: GI% MOLT-4
Procedure: as §1, §2

NCI-H322M = test: NCI one-dose SRB growth inhibition; format: cell-based; settings: Homo sapiens, Non-Small Cell Lung Cancer, 48 h, read-out: GI% NCI-H322M
Procedure: as §1, §2

NCI-H522 = test: NCI one-dose SRB growth inhibition; format: cell-based; settings: Homo sapiens, NCI-H522, 48 h, Non-Small Cell Lung Cancer, read-out: GI% NCI-H522
Procedure: as §1, §2

SF-539 = test: NCI one-dose SRB growth inhibition; format: cell-based; settings: Homo sapiens, CNS Cancer, 48 h, read-out: GI% SF-539
Procedure: as §1, §2

SK-MEL-5 = test: NCI one-dose SRB growth inhibition; format: cell-based; settings: Homo sapiens, Melanoma, 48 h, read-out: GI% SK-MEL-5
Procedure: as §1, §2

SK-OV-3 = test: NCI one-dose SRB growth inhibition; format: cell-based; settings: Homo sapiens, Ovarian Cancer, 48 h, read-out: GI% SK-OV-3
Procedure: as §1, §2

SN12C = test: NCI one-dose SRB growth inhibition; format: cell-based; settings: Homo sapiens, Renal Cancer, 48 h, read-out: GI% SN12C
Procedure: as §1, §2

SW-620 = test: NCI one-dose SRB growth inhibition; format: cell-based; settings: Homo sapiens, Colon Cancer, 48 h, read-out: GI% SW-620
Procedure: as §1, §2

U251 = test: NCI one-dose SRB growth inhibition; format: cell-based; settings: Homo sapiens, U-251, CNS Cancer, 48 h, read-out: GI% U251
Procedure: as §1, §2

UACC-62 = test: NCI one-dose SRB growth inhibition; format: cell-based; settings: Homo sapiens, UACC-62, 48 h, Melanoma, read-out: GI% UACC-62
Procedure: as §1, §2

[1] = tested on: 60 cancer cell lines (NCI, USA); test: NCI one-dose SRB assay, whole panel; format: cell-based, human; settings: 10 μM; for Sensitive cell lines no.: cell lines with GI% higher than 10%
Procedure: as §1, §2

A549 cell line = test: MTT anti-proliferative assay; format: cell-based; settings: Homo sapiens, 48 h of incubation, mean ± SD of three experiments
Procedure: (§3) A549 (non-small cell lung cancer cell line) and HCT-116 (human colon cancer cell line), were obtained from American Type Culture Collection (Manassas, VA, USA). The cells were maintained in Dulbecco’s Modified Eagle’s Medium (DMEM) (Sigma-Aldrich, St. Louis, MO), and supplemented with 10% heat-inactivated FBS (Hyclone), 10 μg/mL of insulin (Manufacturer, Sigma, St. Louis, MO, USA), and 1% penicillin-streptomycin. MTT assay[29] was adopted to assess the in vitro antitumor activity of the newly synthesized pyridines 5a–l according to the reported procedures, using Doxorubicin as a standard treatment. Experimental conditions were tested using three replicates (three wells of the 96-well plate per experimental condition) and all experiments were carried out in triplicates. IC50 values were calculated by the use of the equation for Boltzman sigmoidal concentration–response curve using the nonlinear regression fitting models by Graph Pad, Prism version 5 (GraphPad Software Inc., La Jolla, CA).
(§4) All newly synthesized pyridines 5a–l were examined for their anti-proliferative activity towards two cancer cell lines: non-small cell lung cancer A549 cell line and colon cancer HCT-116 cell line. The MTT colorimetric assay was adopted to assess the anti-proliferative activity as described by Mosmann[29]. Doxorubicin was used as a control in this assay.

HCT-116 cell line = test: MTT anti-proliferative assay; format: cell-based; settings: Homo sapiens, 48 h of incubation, mean ± SD of three experiments
Procedure: as §3, §4

WI-38 cell line = test: MTT cytotoxicity towards non-tumorigenic cells; format: cell-based, human; settings: for IC50: WI-38, MTT, non-tumorigenic human lung fibroblast, mean ± SD of three experiments; for S. I. WI-38/A549: selectivity index, IC50 WI-38 / IC50 A549
Procedure: The cytotoxic activity of all synthesized pyridines 5a–l were assessed against non-tumorigenic human lung fibroblast WI-38 cell line to investigate their safety, using the MTT colorimetric assay.

Row | Compound | inhibition at 10 µM (A498) | inhibition at 10 µM (BT-549) | inhibition at 10 µM (COLO 205) | inhibition at 10 µM (DU-145) | inhibition at 10 µM (HCT-116) | inhibition at 10 µM (HCT-15) | inhibition at 10 µM (HL-60(TB)) | inhibition at 10 µM (IGROV1) | inhibition at 10 µM (KM12) | inhibition at 10 µM (LOX IMVI) | inhibition at 10 µM (MCF7) | inhibition at 10 µM (MDA-MB-231) | inhibition at 10 µM (MDA-MB-435) | inhibition at 10 µM (MOLT-4) | inhibition at 10 µM (NCI-H322M) | inhibition at 10 µM (NCI-H522) | inhibition at 10 µM (SF-539) | inhibition at 10 µM (SK-MEL-5) | inhibition at 10 µM (SK-OV-3) | inhibition at 10 µM (SN12C) | also measured
1 | Cc1nc(-c2ccc(F)cc2)ccc1NC(=O)Nc1cccc(C(F)(F)F)c1 [Compound 5a, 1-(6-(4-Fluorophenyl)-2-methylpyridin-3-yl)-3-(3-(trifluoromethyl)phenyl)urea] | < 10% | < 10% | < 10% | 11% | > 40% | > 40% | 11% | < 10% | 37% | 37% | 30% | 28% | 19% | 33% | 15% | > 40% | < 10% | 32% | 13% | 26% | inhibition at 10 µM (SW-620): < 10%; inhibition at 10 µM (U251): 31%; inhibition at 10 µM (UACC-62): > 40%; Sensitive cell lines no. [1]: 42; mean % GI ([1]; mean over NCI panel): 22%; IC50 (A549 cell line): 6.83 ± 0.42 µM; IC50 (HCT-116 cell line): 5.49 ± 0.3 µM; IC50 (WI-38 cell line): 93.5 ± 5.28 µM; S. I. WI-38/A549 (WI-38 cell line): 13.7
2 | CCOC(=O)c1ccc(NC(=O)Nc2ccc(-c3ccc(F)cc3)nc2C)cc1 [Compound 5c, Ethyl 4-(3-(6-(4-fluorophenyl)-2-methylpyridin-3-yl)ureido)benzoate] | < 10% | < 10% | < 10% | < 10% | < 10% | < 10% | 13% | < 10% | < 10% | 24% | 20% | < 10% | < 10% | < 10% | < 10% | 24% | < 10% | 38% | < 10% | < 10% | inhibition at 10 µM (SW-620): < 10%; inhibition at 10 µM (U251): < 10%; inhibition at 10 µM (UACC-62): 29%; Sensitive cell lines no. [1]: 13; IC50 (A549 cell line): 9.61 ± 1.03 µM; IC50 (WI-38 cell line): 123 ± 10.2 µM; S. I. WI-38/A549 (WI-38 cell line): 12.8
3 | Cc1nc(-c2ccc(F)cc2)ccc1NC(=O)Nc1ccc2c(c1)OCO2 [Compound 5d, 1-(Benzo[d][1, 3]dioxol-5-yl)-3-(6-(4-fluorophenyl)-2-methylpyridin-3-yl)urea] | < 10% | < 10% | < 10% | < 10% | 17% | < 10% | < 10% | < 10% | 11% | 34% | < 10% | < 10% | < 10% | < 10% | < 10% | 45% | < 10% | 19% | < 10% | < 10% | inhibition at 10 µM (SW-620): < 10%; inhibition at 10 µM (U251): < 10%; inhibition at 10 µM (UACC-62): 20%; Sensitive cell lines no. [1]: 12; IC50 (A549 cell line): 12.5 ± 0.85 µM; IC50 (HCT-116 cell line): 10.4 ± 0.84 µM; IC50 (WI-38 cell line): 107 ± 7.03 µM; S. I. WI-38/A549 (WI-38 cell line): 8.6
4 | Cc1nc(-c2ccc(Cl)cc2)ccc1NC(=O)Nc1ccc2c(c1)OCO2 [Compound 5g, 1-(Benzo[d][1,3]dioxol-5-yl)-3-(6-(4-chlorophenyl)-2-methylpyridin-3-yl)urea] | < 10% | < 10% | < 10% | < 10% | < 10% | < 10% | 24% | < 10% | < 10% | 34% | < 10% | < 10% | < 10% | 18% | < 10% | 38% | < 10% | 17% | < 10% | < 10% | inhibition at 10 µM (SW-620): < 10%; inhibition at 10 µM (U251): < 10%; inhibition at 10 µM (UACC-62): 27%; Sensitive cell lines no. [1]: 12; IC50 (A549 cell line): 6.72 ± 0.38 µM; IC50 (WI-38 cell line): 63.5 ± 5.08 µM; S. I. WI-38/A549 (WI-38 cell line): 9.4
5 | Cc1nc(-c2cccs2)ccc1NC(=O)Nc1ccc(Cl)cc1 [Compound 5i, 1-(4-Chlorophenyl)-3-(2-methyl-6-(thiophen-2-yl)pyridin-3-yl)urea] | < 10% | < 10% | < 10% | < 10% | < 10% | < 10% | 20% | < 10% | < 10% | < 10% | 12% | < 10% | < 10% | 15% | < 10% | 28% | < 10% | < 10% | < 10% | < 10% | inhibition at 10 µM (SW-620): < 10%; inhibition at 10 µM (U251): < 10%; inhibition at 10 µM (UACC-62): 19%; Sensitive cell lines no. [1]: 9; IC50 (A549 cell line): 8.73 ± 0.71 µM; IC50 (WI-38 cell line): 129 ± 12 µM; S. I. WI-38/A549 (WI-38 cell line): 14.8
